Source: patent publication US11845742B2, “Therapeutic compounds and methods to treat infection” (priority 2017, dated 2023)
In brackets after ≈: the same amount, converted by molar mass. Like-named read-outs stand apart in the source and are kept apart here.

Columns and labels:
[1] = system: E. coli ATCC 25922; assay: Intrinsic MIC assay (broth microdilution), E. coli; assay type: cell-based, Escherichia coli; details: for MIC: Escherichia coli
Method: (§1) MIC assays were conducted in accordance with Clinical and Laboratory Standards Institute (CLSI) guidelines for broth microdilution.
(§2) The intrinsic MIC of the experimental EPIs was tested with the method described. The 2-fold serial dilution begins with 100 μg/mL of tested compound in the first column of the 96-well plates. The following Gram-negative bacterial strains were included in these assays: • Escherichia coli ATCC 25922 • Klebsiella pneumoniae ATCC 13883 and ATCC 10031 • Pseudomonas aeruginosa ATCC 27853. • Pseudomonas aeruginosa PAO1 • Acinetobacter baumannii ATCC 19606

[2] = system: A. baumannii ATCC 19606; assay: Intrinsic MIC assay (broth microdilution), A. baumannii; assay type: cell-based, Acinetobacter baumannii; details: for MIC: Acinetobacter baumannii
Method: as §1, §2

[3] = system: P. Aeruginosa PAO1; assay: MIC assay in the presence of a bacterial efflux pump inhibitor (EPI), P. aeruginosa PAO1; assay type: cell-based, Pseudomonas aeruginosa; details: in the presence of 12.5 μg/ml of N-(((2S,4R)-4-(aminomethyl)pyrrolidin-2-yl)methyl)-6-(4-fluorophenyl)-1H-indole-2-carboxamide
Method: The ability of a compound to produce an antibiotic effect can be determined using a method as described in Example 11. Data for representative compounds used in combination with the bacterial efflux pump inhibitor (EPI) N-(((2S,4R)-4-(aminomethyl)pyrrolidin-2-yl)methyl)-6-(4-fluorophenyl)-1H-indole-2-carboxamide is shown in Table 1.
as §1
The EPI assay for the purposes of these studies represents a MIC assay in which the MIC of the antibiotic against the bacteria is tested in the presence of an experimental efflux pump inhibitor (EPI). The highest concentration of the EPI present in the assay typically is ½ of the intrinsic MIC of the compound. […] Using serial dilutions of the EPI, its enhancement of antibiotic activity was then evaluated. The relative EPI activity was decided by comparing the MIC of the antibiotic in the presence of the EPI compound with the intrinsic MIC of the antibiotic alone. For comparative purposes, we generally used EPIs at concentration of 12.5 and 6.25 μg/ml against varying concentration of our test antibiotic.

[4] = system: K. pneumoniae ATCC 10031; assay: Intrinsic MIC assay (broth microdilution), K. pneumoniae; assay type: cell-based, Klebsiella pneumoniae; details: for MIC: Klebsiella pneumoniae
Method: as §1, §2

[5] = system: P. Aeruginosa PAO1; assay: Intrinsic MIC assay (broth microdilution), P. aeruginosa PAO1; assay type: cell-based, Pseudomonas aeruginosa; details: for MIC: Pseudomonas aeruginosa, read-out: Intrinsic MIC; for Intrinsic MIC, second value printed in parentheses: not explained
Method: as §1, §2

[6] = ATCC25922, E. coli ATCC 25922, read-out: Intrinsic MIC
[7] = ATCC19606, A. baumannii ATCC 19606, read-out: Intrinsic MIC
[8] = ATCC10031, K. pneumoniae ATCC 10031, read-out: Intrinsic MIC
[9] = P. Aeruginosa PAO1, without EPI
[10] = 18 h, P. Aeruginosa PAO1, without EPI
[11] = ATCC25922, read-out: Intrinsic MIC
[12] = ATCC19606, read-out: Intrinsic MIC
[13] = ATCC10031, read-out: Intrinsic MIC

Molecule	MIC [1, 6] [µg/mL]	MIC [2, 7] [µg/mL]	MIC in the Presence of EPI* [3] [µg/mL]	MIC [4, 8] [µg/mL]	Intrinsic MIC [5, 9] [µg/mL]	MIC [5, 10] [µg/mL]	Intrinsic MIC, second value printed in parentheses [5, 9] [µg/mL]	MIC [1, 11] [µg/mL]	MIC [2, 12] [µg/mL]	MIC [4, 13] [µg/mL]	MIC ([5]; PAO1, 18 h) [µg/mL]	Intrinsic MIC ([1]; E. coli ATCC 25922) [µg/mL]	Intrinsic MIC ([2]; A. baumannii ATCC 19606) [µg/mL]	Intrinsic MIC ([4]; K. pneumoniae ATCC 10031) [µg/mL]
NCc1cc2ccc(Br)cc2[nH]1 [Example 13, (6-Bromo-1H-indol-2-yl)methanamine]	256 (≈ 1140 µM)	128 (≈ 569 µM)	16	256 (≈ 1140 µM)		64 (≈ 284 µM)								
CC(N)c1cc2cc(C(F)(F)F)ccc2[nH]1 (stereo not drawn) [Example 9, 1-(5-(Trifluoromethyl)-1H-indol-2-yl)ethan-1-amine]	128 (≈ 561 µM)	64 (≈ 280 µM)	16	64 (≈ 280 µM)		> 256								
CC(N)c1cc2c(Cl)cc(Cl)cc2[nH]1 (stereo not drawn) [Example 15, 1-(4,6-Dichloro-1H-indol-2-yl)ethan-1-amine]	128 (≈ 559 µM)	32 (≈ 140 µM)	16	64 (≈ 279 µM)	256									
CC(N)c1cc2cc(Br)ccc2n1C (stereo not drawn) [Example 5, 1-(5-Bromo-1-methyl-1H-indol-2-yl)ethan-1-amine]	128 (≈ 506 µM)	128 (≈ 506 µM)	64	64 (≈ 253 µM)		> 256								
NC1CCCCc2c1[nH]c1ccc(Cl)c(Cl)c21 (stereo not drawn) [Example 20, 1,2-Dichloro-5,6,7,8,9,10-hexahydrocyclohepta[b]indol-6-amine hydrochloric acid]			1					8 (≈ 29.7 µM)	8 (≈ 29.7 µM)	2 (≈ 7.43 µM)	32 (≈ 119 µM)			
CNC(C)c1cc2cc(Br)ccc2[nH]1 (stereo not drawn) [Example 3, 1-(5-Bromo-1H-indol-2-yl)-N-methylethan-1-amine]	256 (≈ 1010 µM)	64 (≈ 253 µM)	64	128 (≈ 506 µM)		> 256								
CC(NCCc1ccccc1)c1cc2cc(Br)ccc2[nH]1 (stereo not drawn) [Example 33, 1-(5-Bromo-1H-indol-2-yl)-N-phenethylethan-1-amine]	16 (≈ 46.6 µM)	32 (≈ 93.2 µM)	32	4 (≈ 11.7 µM)		> 256								
CC(N)c1cc2ccc(Br)cc2[nH]1 (stereo not drawn) [Example 10, 1-(6-Bromo-1H-indol-2-yl)ethan-1-amine]	256 (≈ 1070 µM)	128 (≈ 535 µM)	32	128 (≈ 535 µM)		> 256								
CC(N)c1cc2ccccc2[nH]1 (stereo not drawn) [Example 4, 1-(1H-Indol-2-yl)ethan-1-amine]	> 256	> 256	128	> 256		> 256								
1-(5-Bromo-1H-indol-2-yl)ethane-1,2-diamine [Example 6]			128		256							128	128	64
CCCCC(N)c1cc2cc(Br)ccc2[nH]1 (stereo not drawn) [Example 2, 1-(5-Bromo-1H-indol-2-yl)pentan-1-aminium chloride]			64					16	32	16	> 256			
CC(c1cc2cc(Br)ccc2[nH]1)N(C)C (stereo not drawn) [Example 16, 1-(5-Bromo-1H-indol-2-yl)-N,N-dimethylethan-1-amine]	256 (≈ 958 µM)	128 (≈ 479 µM)	64	256 (≈ 958 µM)		256 (≈ 958 µM)								

Second part, led by results:

MIC [1, 6] [µg/mL]	MIC [2, 7] [µg/mL]	MIC in the Presence of EPI* [3] [µg/mL]	MIC [4, 8] [µg/mL]	Intrinsic MIC [5, 9] [µg/mL]	MIC [5, 10] [µg/mL]	Intrinsic MIC, second value printed in parentheses [5, 9] [µg/mL]	Molecule	MIC [1, 11] [µg/mL]	MIC [2, 12] [µg/mL]	MIC [4, 13] [µg/mL]	MIC ([5]; PAO1, 18 h) [µg/mL]	Intrinsic MIC ([1]; E. coli ATCC 25922) [µg/mL]	Intrinsic MIC ([2]; A. baumannii ATCC 19606) [µg/mL]	Intrinsic MIC ([4]; K. pneumoniae ATCC 10031) [µg/mL]
256 (≈ 1300 µM)	128 (≈ 652 µM)	8	128 (≈ 652 µM)	256			CC(N)c1cc2cc(F)c(F)cc2[nH]1 (stereo not drawn) [Example 17, 1-(5,6-Difluoro-1H-indol-2-yl)ethan-1-amine]							
16 (≈ 66.4 µM)	16 (≈ 66.4 µM)	8	8 (≈ 33.2 µM)		64 (≈ 265 µM)		NC1CCc2c1[nH]c1cc(Cl)c(Cl)cc21 (stereo not drawn) [Example 23, 6,7-Dichloro-1,2,3,4-tetrahydrocyclopenta[b]indol-3-amine]							
32 (≈ 68.2 µM)	64 (≈ 136 µM)	32	4 (≈ 8.52 µM)		> 256		CC(NCCCNC(=O)c1ccc(Cl)c(Cl)c1)c1cc2cc(Br)ccc2[nH]1 (stereo not drawn) [Example 30, N-(3-((1-(5-Bromo-1H-indol-2-yl)ethyl)amino)propyl)-3,4-dichlorobenzamide]							
16 (≈ 57.3 µM)	16 (≈ 57.3 µM)	4	16 (≈ 57.3 µM)		128 (≈ 458 µM)		NC1CCCCc2c1[nH]c1ccc(Br)cc21 (stereo not drawn) [Example 19, 2-Bromo-5,6,7,8,9,10-hexahydrocyclohepta[b]indol-6-amine]							
16 (≈ 66.4 µM)	8 (≈ 33.2 µM)	1	8 (≈ 33.2 µM)	32			NC1CCc2c1[nH]c1ccc(Cl)c(Cl)c21 (stereo not drawn) [Example 22, 7,8-Dichloro-1,2,3,4-tetrahydrocyclopenta[b]indol-3-amine]							
32 (≈ 70.3 µM)	64 (≈ 141 µM)	32	4 (≈ 8.79 µM)		> 256		CC(NCCNC(=O)c1ccc(Cl)c(Cl)c1)c1cc2cc(Br)ccc2[nH]1 (stereo not drawn) [Example 34, N-(2-((1-(5-Bromo-1H-indol-2-yl)ethyl)amino)ethyl)-3,4-dichlorobenzamide]							
16 (≈ 47.6 µM)	32 (≈ 95.2 µM)		8 (≈ 23.8 µM)		64 (≈ 190 µM)	32	NCCCNC1CCCCc2c1[nH]c1ccc(Br)cc21 (stereo not drawn) [Example 28, N^1-(2-Bromo-5,6,7,8,9,10-hexahydrocyclohepta[b]indol-6-yl)propane-1,3-diamine]							
128 (≈ 437 µM)	128 (≈ 437 µM)	256	64 (≈ 218 µM)		> 256		CC(NCC1CC1)c1cc2cc(Br)ccc2[nH]1 (stereo not drawn) [Example 35, 1-(5-Bromo-1H-indol-2-yl)-N-(cyclopropylmethyl)ethan-1-amine]							
64 (≈ 208 µM)	256 (≈ 831 µM)		32 (≈ 104 µM)		64 (≈ 208 µM)	128	NCCCNC1CCc2c1[nH]c1ccc(Br)cc21 (stereo not drawn) [Example 29, N^1-(7-Bromo-1,2,3,4-tetrahydrocyclopenta[b]indol-3-yl)propane-1,3-diamine]							
32 (≈ 108 µM)	64 (≈ 217 µM)	64	16 (≈ 54.2 µM)		> 256		CCCCNC(C)c1cc2cc(Br)ccc2[nH]1 (stereo not drawn) [Example 32, N-(1-(5-Bromo-1H-indol-2-yl)ethyl)butan-1-amine]							
		64	8 (≈ 18.1 µM)		32 (≈ 72.6 µM)	> 256	CC(NCCCNC(=O)c1ccc(Cl)s1)c1cc2cc(Br)ccc2[nH]1 (stereo not drawn) [Example 27, N-(3-((1-(5-Bromo-1H-indol-2-yl)ethyl)amino)propyl)-5-chlorothiophene-2-carboxamide]							
64 (≈ 157 µM)	64 (≈ 157 µM)	128	16 (≈ 39.4 µM)		> 256		CC(NCCCNC(=O)C1CCCCC1)c1cc2cc(Br)ccc2[nH]1 (stereo not drawn) [Example 31, N-(3-((1-(5-Bromo-1H-indol-2-yl)ethyl)amino)propyl)cyclohexanecarboxamide]							
16 (≈ 34.1 µM)	32 (≈ 68.2 µM)	16	4 (≈ 8.52 µM)		> 256		CC(NCCCC(=O)Nc1ccc(Cl)c(Cl)c1)c1cc2cc(Br)ccc2[nH]1 (stereo not drawn) [Example 37, 4-((1-(5-Bromo-1H-indol-2-yl)ethyl)amino)-N-(3,4-dichlorophenyl)butanamide]							
256 (≈ 825 µM)	256 (≈ 825 µM)	> 256	128 (≈ 413 µM)		> 256		CCNCCNC(C)c1cc2cc(Br)ccc2[nH]1 (stereo not drawn) [Example 39, N^1-(1-(5-Bromo-1H-indol-2-yl)ethyl)-N^2-ethylethane-1,2-diaminehydrochloricacid]							
16 (≈ 48.6 µM)	32 (≈ 97.2 µM)	32	8 (≈ 24.3 µM)		> 256		NC(CCc1ccccc1)c1cc2cc(Br)ccc2[nH]1 (stereo not drawn) [Example 36, 1-(5-Bromo-1H-indol-2-yl)-3-phenylpropan-1-amine]							
	256 (≈ 864 µM)		64 (≈ 216 µM)		64 (≈ 216 µM)	128	CC(NCCCN)c1cc2cc(Br)ccc2[nH]1 (stereo not drawn) [Example 24, N^1-(1-(5-Bromo-1H-indol-2-yl)ethyl)propane-1,3-diamine]							
